Experimental data taken from patent publication US20160115542A1, “BIOMARKER OF Nrf2 ACTIVATION” (MOCHIDA PHARMACEUTICAL CO., LTD., priority 2013, published 2016).

Tests used:
[1] = tested on: HFD-induced insulin resistance and obesity; conditions: cited from earlier work
[2] = tested on: STZ-induced type 1 diabetic mice; conditions: cited from earlier work
[3] = tested on: type 2 diabetes model rats; conditions: cited from earlier work
[4] = tested on: HFD-induced obesity model and diabetic db/db model mice; conditions: cited from earlier work
FGF21 [5] = assay: FGF21 induction by administration of Nrf2 activator in diabetic db/db mice (plasma ELISA, hepatic qPCR); assay type: in vivo, mouse; conditions: oral 10 mg/kg once a day for 1 week
Procedure: (§1) FGF21 plasma concentration was measured using mouse/rat FGF21 Quantikine ELISA Kit (R & D Systems, Minneapolis, Minn., USA).
(§2) Total RNA was extracted from liver tissue using Isogen RNA extract kit (Nippon Gene), and reverse-transcribed to cDNA using SuperScript III (Invitrogen). Quantitative real-time PCR (qPCR) was carried out using TaqMan probes using an ABI 7300 system (Applied Biosystems). Relative expression of genes was normalized against Hprt (hypoxanthine guanine phosphoribosyl transferase) mRNA. The following primers and probes were used: […]
Using spontaneous diabetic db/db mice, plasma FGF21 concentration and hepatic Fgf21 gene expression level were compared after administration of the Nrf2 activator. CDDO-Im was used as the Nrf2 activator, and orally administered in 10 mg/kg, once a day for 1 week. Blood and tissue were collected under isoflurane anesthesia after certain hours from the administration, and plasma FGF21 concentration and hepatic Fgf21 mRNA expression level were measured in the same manner as in the method described in (1-2).

Nqo1 = assay: Time-course of hepatic Nqo1 gene expression after single Nrf2 activator administration; assay type: in vivo, mouse; conditions: db/db mice, single oral administration 30 μmol/kg
Procedure: as §2
(§3) CDDO-Im was used as the Nrf2 activator, and orally administered to db/db mice in 30 μmol/kg. Blood and tissue were collected under isoflurane anesthesia after certain hours from the administration, and expression of the Nrf2 target gene Nqo1 in liver and plasma FGF21 concentration were measured in the same manner as in the method described in (1-2). The following primers and probes were used: […]

FGF21 [6] = assay: Time-course of plasma FGF21 concentration after single Nrf2 activator administration; assay type: in vivo, mouse; conditions: db/db mice, single oral administration 30 μmol/kg
Procedure: as §1, §3

[7] = tested on: high-fat-diet (HFD)-induced obesity; conditions: repetitive administration; cited from earlier work
mouse Fgf21 reporter = assay: FGF21 promoter (mouse Fgf21 reporter) luciferase assay in Hepa1 cells; assay type: cell-based; conditions: 100 nM, 48 hours
Procedure: Cloning of the mouse FGF21 promoter region was performed using a known technique. By using the mouse Fgf21 […] sequence as a template, a sequence (about 2.1 kbp) amplified with the primers 1.1 and 1.2 below was cloned into pGL4.15 vector (Promega) to create a mouse Fgf21 reporter vector.
The mouse Nrf2 cDNA sequence was cloned into pcDNA3.1/V5-His B vector (Invitrogen) to create a mouse Nrf2 expression vector.
Mouse hepatoma cells Hepa1c1c7 (Hepa1) were cultured in Dulbecco's Modified Eagle medium (Wako) supplemented with 10% fetal bovine serum, and 1% penicillin-streptomycin (Gibco). The mouse Fgf21 reporter vector and mouse Nrf2 expression vector, or the mouse Fgf21 reporter vector and an empty vector (mock) were transfected into Hepa1 cells using Lipofectamine 2000 Transfection Reagent (Invitrogen). The cells were cultured for 6 hours, and the medium was removed. The cells were further cultured for 48 hours after adding a medium containing 100 nM of Nrf2 activator CDDO-Im (2-cyano-3,12-dioxooleana-1,9(11)-dien-28-oic acid imidazol) or 0.1% dimethylsulfoxide (vehicle; Wako). Luciferase activity was then measured using a luminometer (Berthold).

Cc1c(-c2cnccn2)ssc1=S [oltipraz]
HFD-induced insulin resistance and obesity [1]: attenuates

C[S+]([O-])CCCCN=C=S (stereo not drawn) [sulforaphane]
β cell injury [2]: protected β cell injury

O=C(/C=C/c1ccc(O)c2c1[C@H](C(=O)O[C@H](Cc1ccc(O)c(O)c1)C(=O)O)[C@@H](c1ccc(O)c(O)c1)O2)O[C@H](Cc1ccc(O)c(O)c1)C(=O)O [lithospermic acid B (LAB), lithospermic acid B]
β cell injury [3]: protected β cell injury

COC(=O)[C@]12CCC(C)(C)C[C@H]1[C@H]1C(=O)C=C3[C@@]4(C)C=C(C#N)C(=O)C(C)(C)[C@@H]4CC[C@@]3(C)[C@]1(C)CC2 [CDDO-Me, 2-cyano-3,12-dioxooleana-1,9(11)-dien-28-oic acid methyl ester]
blood glucose level and plasma lipid level [4]: reduce

CC1(C)CC[C@]2(C(=O)n3ccnc3)CC[C@]3(C)[C@H](C(=O)C=C4[C@@]5(C)C=C(C#N)C(=O)C(C)(C)[C@@H]5CC[C@]43C)[C@@H]2C1 [CDDO-Im, 1-[2-cyano-3,12-dioxooleana-1,9(11)-dien-28-oyl]imidazole]
induction of hepatic FGF21 gene expression level in Nrf2 gene knockout db/db mice (FGF21 [5]; Nrf2 gene knockout db/db mice): abolished | induction of plasma FGF21 concentration in Nrf2 gene knockout db/db mice (FGF21 [5]; Nrf2 gene knockout db/db mice): abolished | hepatic FGF21 gene expression level (FGF21 [5]; db/db mice, vs vehicle): significantly increased | plasma FGF21 concentration (FGF21 [5]; db/db mice, vs vehicle): significantly increased | Nqo1 gene expression in liver (Nqo1): increased | time for which increased hepatic Nqo1 expression level was sustained after administration (Nqo1): 48 h | plasma FGF21 concentration (FGF21 [6]): increased | time postdose until which increased plasma FGF21 concentration was maintained (FGF21 [6]): 48 h | high-fat-diet (HFD)-induced obesity [7]: prevents | luciferase activity enhancement compared with the vehicle (mouse Fgf21 reporter; Fgf21 reporter + empty vector (mock)): about 2 fold | luciferase activity with transfection of mouse Nrf2 expression vector and addition of compound (mouse Fgf21 reporter; Fgf21 reporter + mouse Nrf2 expression vector): further increased
